The source of these data is patent US6815205B2, “Auxinic analogues of indole-3-acetic acid” (Invitrogen Corporation, priority 1995, dated 2004).

One assay deals with Arabidopsis thaliana. The procedure:
Seeds of Arabidopsis thaliana ecotypes Columbia and Landersberg ereta are provided by Dr. Keith Davis (The Ohio State University, Columbus). Tissues of hypocotyl are removed from 10-day-old seedlings, transferred to MS complete medium containing (1) different concentrations of IAA or IAA analogue with different concentrations of N^6.(Δ2Isopentenyl) adenine (2iP) and (2) different concentrations of IAA analogue with different concentrations of 2iP, BAP, or kinetin. The explants are incubated at 23° C. using an 18 h light/6 h dark cycle until the formation of green calli and shoots.

The conditions of assay [1]: disclosed in copending U.S. application Ser. No. 08/430,209; cited from earlier work.
In the next assay the test system is transformed tobacco. The experiment in a line: Regeneration of Agrobacterium-mediated transformed tobacco tissue under kanamycin selection. Particulars: in the presence of BAP; 100 mg/l kanamycin. The format is cell-based. The method, then: (§1) These IAA analogues were further evaluated for their abilities to effect the regeneration of plant tissues comprising foreign DNA. Tobacco and potato tissues were subjected to Agrobacterium-mediated transformation techniques, including cocultivation with Agrobacterium containing pBI121 and selecting with MS complete medium containing 0.5 mg/l BAP, 2 mg/l IAA derivative and 100 mg/l kanomycin.
(§2) Agrobacterium-mediated plant transformation was performed as described by Lin et al. (1994) Focus 16:72-77. For example:
In tobacco, the leaf discs were incubated with 10^9 cells/ml of Agrobacterium tumefaciens LBA4404 cells containing pBI121 in MS complete medium with 0.5 mg/l MES for 10 minutes, transferred to solid MS complete medium, and incubated for two days at 25° C., using an 18 hour light/6 hour dark cycle for cocultivation. After cocultivation, the explants were transferred to the MS medium containing a different ratio of BAP/IAA or BAP/IAA analogue, 100 mg/l kanamycin and 500 mg/l carbenicillin and incubated at 25° C. using an 18 hour light/6 hour dark cycle for shoot formation.

For the next assay, the system named is transformed potato. Put plainly: Regeneration of Agrobacterium-mediated transformed potato tissue under kanamycin selection. The format is cell-based. Further details: key to Potato Callus (regeneration of transformed tissue): +(−) means preliminary observation. Particulars: 100 mg/l kanamycin; for regeneration of kanamycin resistant calli in transformed potato: in the presence of BAP; for Potato Callus (regeneration of transformed tissue): BAP 0.5 mg/l, 2 mg/l IAA derivative, Agrobacterium pBI121. The procedure:
as §1
Plant transformation in potato stems is carried out as described above in section (a) for tobacco.
as §2
In another example, potato leaf discs were transformed with the Agrobacterium-mediation technique as described above for tobacco. The potato explants were then subjected to incubation with IAA analogues in the absence and presence of cytokinin to screen for auxinic activities.

The subject of assay [2] is tobacco leaf discs. The experiment in a line: Regeneration of roots or calli from tobacco leaf explants, MS complete medium with auxin only. Particulars: for Tobacco Callus (regeneration): Auxins 2 mg/l, no cytokinin, MS complete medium. The format is cell-based, Nicotiana tobaccum Xanthi. Set-up: key to Tobacco Callus (regeneration): +(−) means preliminary observation. The method, then: (§3) In particular embodiments of the invention, various IAA analogues were screened for auxinic activity by incubating different plant tissues, e.g., tobacco and tomato leaf discs and potato stems in (a) MS complete medium (obtained from Life Technologies, Inc., Gaithersburg, Md.) containing different concentrations of auxin only and (2) the MS complete auxin medium containing different ratios of cytokinin/auxin.
(§4) In another embodiment of the invention, IAA analogues were screened for auxinic activity. […] Table 1 documents the ability of the different IAA analogues to stimulate the regeneration of roots or calli from tobacco, tomato and potato. In general, IAA analogues having a bromine substitution at the 2
Seeds of Nicotiana tobaccum Xanthi are provided by Dr. James Saunders (USDA, Beltsville, Md.). Young tobacco leaves are removed and cut into small pieces.
The regeneration of plant tissues using tissue culture depends on plant hormones such as auxin and cytokinin. It is known that the presence of an auxin in plant tissue cultured on Murashige and Skoog (MS) medium (Murashige, T. and F. Skoog (1962) Physiol. Plant 15:473-497) stimulates the formation of root structure whereas the formation of callus is observed when not only the auxin but also a cytokinin complement the MS nutrient medium. Therefore, evaluation of a test compound as a potential new auxin is performed by incubating tobacco leaf discs in (a) the MS complete medium containing different concentrations of auxin only and (b) the MS complete medium containing different ratios of cytokinin to auxin concentrations (cytokinin/auxin).
(§5) Young tobacco leaves, potato stems, tomato leaves and cassava leaves and stems from one-month-old plants were removed and cut into small pieces. The explants were incubated on (1) the MS complete medium containing different concentrations of auxin related compounds only (2) the MS complete medium containing different concentrations of auxin-related compounds and 0.5 mg/l benzylaminopurine (BAP) using an 18 hour light/6 hour dark cycle until the formation of green calli, shoots or roots.

For assay [3], the system named is potato stems. Put plainly: Regeneration of roots or calli from potato stem explants, MS complete medium with auxin only. Further details: key to Potato Roots (regeneration): +(−) means preliminary observation. Particulars: for root formation in potato stems: absence of BAP. The format is cell-based. The procedure: as §3, §4
Potato seeds of variety “Kent V. F.” are provided by Dr. James Saunders (USDA, Beltsville, Md.). Young potato stems are removed and cut into small pieces. Explants are incubated in MS complete medium with auxin in the presence or absence of cytokinin as described in section (a) above for tobacco.
as §5

For assay [4], the system named is tobacco leaf discs. Put plainly: Regeneration of shoots or calli from tobacco leaf explants, auxin together with cytokinin (BAP). The format is cell-based, Nicotiana tobaccum Xanthi. Set-up: key to Tobacco Callus (regeneration): +(−) means preliminary observation. The method, then: In particular embodiments of the invention, various IAA analogues were screened for auxinic activity by incubating different plant tissues, e.g., tobacco and tomato leaf discs and potato stems in (a) MS complete medium (obtained from Life Technologies, Inc., Gaithersburg, Md.) containing different concentrations of auxin only and (2) the MS complete auxin medium containing different ratios of cytokinin/auxin. These IAA derivatives were further evaluated for auxinic activity in the presence of a cytokinin. […] Incubation of plant tissues Seeds of Nicotiana tobaccum Xanthi are provided by Dr. James Saunders (USDA, Beltsville, Md.). Young tobacco leaves are removed and cut into small pieces. […] The regeneration of plant tissues using tissue culture depends on plant hormones such as auxin and cytokinin. It is known that the presence of an auxin in plant tissue cultured on Murashige and Skoog (MS) medium (Murashige, T. and F. Skoog (1962) Physiol. Plant 15:473-497) stimulates the formation of root structure whereas the formation of callus is observed when not only the auxin but also a cytokinin complement the MS nutrient medium. […]

In assay [5] the test system is potato stems. Put plainly: Regeneration of shoots or calli from potato stem explants, auxin together with cytokinin (BAP). Set-up: key to Potato Callus (regeneration): +(−) means preliminary observation. The format is cell-based. The method, then: In particular embodiments of the invention, various IAA analogues were screened for auxinic activity by incubating different plant tissues, e.g., tobacco and tomato leaf discs and potato stems in (a) MS complete medium (obtained from Life Technologies, Inc., Gaithersburg, Md.) containing different concentrations of auxin only and (2) the MS complete auxin medium containing different ratios of cytokinin/auxin. These IAA derivatives were further evaluated for auxinic activity in the presence of a cytokinin. […] Incubation of plant tissues Potato seeds of variety “Kent V. F.” are provided by Dr. James Saunders (USDA, Beltsville, Md.). Young potato stems are removed and cut into small pieces. Explants are incubated in MS complete medium with auxin in the presence or absence of cytokinin as described in section (a) above for tobacco. Young tobacco leaves, potato stems, tomato leaves and cassava leaves and stems from one-month-old plants were removed and cut into small pieces. The explants were incubated on (1) the MS complete medium containing different concentrations of auxin related compounds only (2) the MS complete medium containing different concentrations of auxin-related compounds and 0.5 mg/l benzylaminopurine (BAP) using an 18 hour light/6 hour dark cycle until the formation of green calli, shoots or roots.

The subject of assay [6] is tomato leaf discs. Put plainly: Regeneration of roots or calli from tomato leaf explants, MS complete medium with auxin only. The format is cell-based. To be noted: 0.5, 2.0 and 8.0 mg/l, absence of BAP. The procedure: as §3, §4
Tomato seeds of variety “Moneymaker” are provided by Dr. James Saunders (USDA, Beltsville, Md.). Young tomato leaves are removed and cut into small pieces. Explants are incubated in MS complete medium with auxin in the presence or absence of cytokinin as described in section (a) above for tobacco.
Young tobacco leaves, potato stems, tomato leaves and cassava leaves and stems from one-month-old plants were removed and cut into small pieces. […]

Assay [7] has as its system tomato leaf discs. Put plainly: Regeneration of shoots or calli from tomato leaf explants, auxin together with cytokinin (BAP). The format is cell-based. Particulars: 0.5, 2.0 or 8.0 with 0.5 mg/l BAP. The procedure:
In particular embodiments of the invention, various IAA analogues were screened for auxinic activity by incubating different plant tissues, e.g., tobacco and tomato leaf discs and potato stems in (a) MS complete medium (obtained from Life Technologies, Inc., Gaithersburg, Md.) containing different concentrations of auxin only and (2) the MS complete auxin medium containing different ratios of cytokinin/auxin. These IAA derivatives were further evaluated for auxinic activity in the presence of a cytokinin. […] Incubation of plant tissues Tomato seeds of variety “Moneymaker” are provided by Dr. James Saunders (USDA, Beltsville, Md.). Young tomato leaves are removed and cut into small pieces. Explants are incubated in MS complete medium with auxin in the presence or absence of cytokinin as described in section (a) above for tobacco. Young tobacco leaves, potato stems, tomato leaves and cassava leaves and stems from one-month-old plants were removed and cut into small pieces. The explants were incubated on (1) the MS complete medium containing different concentrations of auxin related compounds only (2) the MS complete medium containing different concentrations of auxin-related compounds and 0.5 mg/l benzylaminopurine (BAP) using an 18 hour light/6 hour dark cycle until the formation of green calli, shoots or roots.

Consider 5-bromo-IAA, for which the “effectiveness in stimulating the regeneration of green calli, relative to IAA” value in the assay with Arabidopsis thaliana was “between two and four times more effective than IAA”. Besides, the “callus and shoot formation in combination with cytokinin” value in [1] was “both callus and shoot formation are observed”.

On to `O=C(O)Cc1c[nH]c2ccc(Cl)cc12` [5-ClIAA, 5-chloroindole-3-acetic acid], for which the “regeneration of kanamycin resistant calli and shoots in transformed tobacco” value (from here on “regeneration … in transformed tobacco”) in the assay on transformed tobacco is listed as “stimulated”. In the assay on transformed potato, the “regeneration of kanamycin resistant calli in transformed potato” value (“regeneration … in transformed potato” for short) is “stimulated”.

Take `CCc1ccc2[nH]cc(CC(=O)O)c2c1` [5-EtIAA, 5-ethylindole-3-acetic acid]: the “Tobacco Callus (regeneration)” value in the assay with tobacco leaf discs [2] is “+(−)”. For the same compound, the “regeneration … in transformed tobacco” value in the assay with transformed tobacco is reported as “stimulated”. The “regeneration … in transformed potato” value in the assay on transformed potato is reported as “stimulated”.

Regarding `O=C(O)Cc1c[nH]c2ccc(I)cc12` [5-IIAA, 5-iodoindole-3-acetic acid], the “Tobacco Callus (regeneration)” value in the assay on tobacco leaf discs [2] and with tobacco leaf discs [4] (BAP 0.5 mg/l + Auxins 2 mg/l) was “+(−)” in each case. Also, the “Potato Roots (regeneration)” value in the assay with potato stems [3] (Auxins 2 mg/l, no cytokinin, MS complete medium) is given as “+(−)”. In the assay with potato stems [5] (BAP 0.5 mg/l + Auxins 2 mg/l), the “Potato Callus (regeneration)” value is listed as “+(−)”.

Take `COc1ccc2[nH]cc(CC(=O)O)c2c1` [5-MeoIAA, 5-methoxyindole-3-acetic acid]: the “regeneration … in transformed tobacco” value with transformed tobacco was “stimulated”. Also, in the assay with transformed potato, the “regeneration … in transformed potato” value was “stimulated”.

Turning to `O=C(O)Cc1c[nH]c2cc(Br)ccc12` [6-BrIAA, 6-bromoindole-3-acetic acid], the “growth response of tobacco leaf discs” value in the assay with tobacco leaf discs [2] (different concentrations, absence of BAP) is “both the formation of roots and the formation of calli were observed”; in the assay on tobacco leaf discs [4] (different concentrations, presence of BAP), “the formation of both shoots and calli occurred”. For the same compound, the “growth response of tomato leaf discs” value is “only root formation was observed” in the assay with tomato leaf discs [6] and “calli, not roots, were formed” in the assay with tomato leaf discs [7]. Besides, the “root formation in potato stems” value in the assay with potato stems [3] is listed as “root formation was diminished”; with potato stems [3] (concentration increased from 0.5 to 2.0 mg/l) it was “root formation increased”. For the same compound, the “growth response of potato stems” value in the assay on potato stems [5] (0.5, 2.0, 8.0 mg/l with BAP 0.5 mg/l) is “callus formation was observed at all ratios of cytokinin/auxin”.

`O=C(O)Cc1c[nH]c2c(Br)cccc12` [7-BrIAA, 7-bromoindole-3-acetic acid]: the “regeneration … in transformed tobacco” value in the assay with transformed tobacco is on record as “stimulated”. In the assay with transformed potato, the “Potato Callus (regeneration of transformed tissue)” value is “+(−)” and the “regeneration … in transformed potato” value is recorded as “stimulated”.

Regarding `CCc1cccc2c(CC(=O)O)c[nH]c12` [7-EtIAA, 7-ethylindole-3-acetic acid], in the assay on transformed tobacco, the “regeneration … in transformed tobacco” value is on record as “stimulated”. In the assay with transformed potato, the “Potato Callus (regeneration of transformed tissue)” value is “+(−)” and the “regeneration … in transformed potato” value is given as “stimulated”.

For the compound `O=C(O)Cc1c[nH]c2c(F)cccc12` [7-FIAA, 7-fluoroindole-3-acetic acid], the “regeneration … in transformed tobacco” value in the assay on transformed tobacco was “stimulated”. Moreover, in the assay on transformed potato, the “Potato Callus (regeneration of transformed tissue)” value is reported as “+(−)” and the “regeneration … in transformed potato” value is given as “stimulated”.
